For one test, the system named is nerve-ligated rats. The experiment in a line: Nerve-ligated injury model of neuropathic pain, i.c.v. administration (tactile allodynia, thermal hyperalgesia, acute nociception). It is filed as in vivo, rat. The conditions noted are these: given i.c.v.
Test [1] has as its system L5/L6 Nerve Ligated and Sham-Operated Rats. As to conditions: for A50(95% C.L.) Tail Flick- Ligated: L5/L6 nerve ligated rats; for A50(95% C.L.) Tail Flick- Sham: sham-operated rats.
Test [2] has the same test system. As to conditions: for A50(95% C.L.) Hot Plate- Ligated: L5/L6 nerve ligated rats; for A50(95% C.L.) Hot Plate- Sham: sham-operated rats.
Test [3] relates to chick embryo dorsal root ganglia (DRG) neurons. The test can be described thus: Inhibition of neurite outgrowth (NGF-stimulated DRG neurons). As to conditions: 0.25 ng/mL NGF, NGF Control 1.000. It is filed as cell-based. The procedure:
Eight-day chick embryo dorsal root ganglia (DRG) were freed of meninges and removed aseptically. The DRG were kept at 4° C. at all times. Ganglia from six embryos (40-50 per embryo) were washed in Ca^2+-and Mg^2+-free Gey's balanced salt solution (Gibco) and exposed to 0.01% trypsin (Worthington) in the same solution for 10 min at 37° C. A half-volume of phosphate-buffered Gey's balanced salt solution was added for a further 5 min at 37° C. and the reaction was then terminated with one-third volume of Ham's F12 medium (Gibco) containing 5% fetal calf serum (FCS, Gibco). The ganglia were then triturated using a 5 mL narrow-tip pipette to a single cell suspension. Following filtration through […] nylon mesh (Small Parts Inc., Miami, Fla.) in a Millipore chamber to remove clumps, the cell suspension was washed through a 500-ml FCS undercut (700×g for 5 min at 4° C.) and resuspended in 4 mL of Ham's F12 medium plus 5% FCS. The cell suspension was then preplated on a 100-mm Flacon culture dish and incubated for 45-60 min at 37° C. in a 5% CO2 humidified atmosphere. Cells enriched in neurons were decanted for the bioassay, since non-neuronal cells of DRG preferentially stick to the culture substrate.
The inside wells of 96-well Falcon microculture plates were coated with polylysine (0.1 mg/mL) (Sigma) for 4 h at 37° C. (the outside wells were filled with distilled water to provide humidity) and, following a rinse with tissue culture media, […] of neuron-rich cell suspension was added to each well at 10^5 cells/mL. Ninety (90) […] of NGF solution (prepared in tissue culture media) was then added to each well to a final concentration of 0.25 ng/mL NGF per well. […]
The bioassays were read using a Leitz Diavert microscope with phase optics. […] At least 100 neurons per well were counted, and the assay was scored as the ratio of cells bearing neurites greater than one cell diameter to total viable (phase bright) cells.

For the next test, the system named is L5/L6 Nerve Ligated rats. The test can be described thus: Tactile allodynia, nerve ligation injury model (von Frey paw withdrawal threshold).

Like-named read-outs stand apart in the source and are kept apart here.

With `O=C1c2cccc3cc([N+](=O)[O-])cc(c23)C(=O)N1CCO` [Compound A], the “Activity in nerve-ligated injury model of neuropathic pain” value with nerve-ligated rats is on record as “not active”. Moreover, the “A50(95% C.L.) Tail Flick- Ligated” value in test [1] (i.p.) came to 27.8 mg/kg; in test [1] (i.th) it was 78 µg. For the same compound, the “A50(95% C.L.) Tail Flick- Sham” value in test [1] (i.p.) was 25.7 mg/kg; in test [1] (i.th), 34 µg. In addition, the “A50(95% C.L.) Hot Plate- Ligated” value in test [2] (i.p.) is 18.6 mg/kg; in test [2] (i.th) it was 14.8 µg. Also, the “A50(95% C.L.) Hot Plate- Sham” value in test [2] (i.p.) worked out at 34.9 mg/kg; in test [2] (i.th) it was 48.1 µg. Besides, the figures for the “Ratio (cells bearing neurites greater than one cell diameter to total viable cells)” value in test [3] (5 μM compound), in test [3] (50 μM compound) and in test [3] (100 μM compound) were 1.1, 0.16 and 0.016, respectively. Also, the “A50(95% C.L.) Allodynia- Ligated” value with L5/L6 Nerve Ligated rats (i.p.) was 38 mg/kg; in the test with L5/L6 Nerve Ligated rats (i.th) it was 34.6 µg.

Source of the values: patent US7291629B2, “Neurotrophin antagonist compositions” (Painceptor Pharma Corporation, priority 1996, dated 2007).
